Reference: patent publication US9066938B2, “GPBP-1 inhibition and its therapeutic use” (Fibrostatin S.L., priority 2012, dated 2015)

Columns and labels:
A549 cells [1] = assay: T12 LC50 in A549 cells cultured without serum to expand the CSC/SP compartment; format: cell-based; conditions: Homo sapiens
Protocol: FIG. 16. GPBP is over-expressed in A549 cells grown in B-ALI media that allows CSC/SP expansion. Bars represent the relative expression of the indicated genes in A549 cells grown with the indicated culture medium during the indicated times. A549 cells grown in DMEM: Ham's F12 medium supplemented with 2 mM L-glutamine and 10% fetal bovine serum (day 0) were used as reference.
Chemoresistance is widely accepted to depend on epigenetic changes occurring at the CSC/SP compartment (Alberts et al. 2007). Accordingly GPBP-mediated doxorubicin resistance is expected to occur on CSC/SP compartment. To test this we cultured A549 cells in the absence of serum using culture conditions known to expand CSC/SP compartment.

[2] = test system: A549 cells (CSC/SP and CTAC/MP compartments); assay: Doxorubicin content of A549 cells by flow cytometry; format: cell-based, human; conditions: doxorubicin 1 μM plus T12 50 μM
Protocol: FIG. 10. T12 enhances doxorubicin accumulation, preferentially in CSC/SP cells. A549 cultures were untreated (control) or treated with doxorubicin (1 μM) and/or T12 (50 μM). A, doxorubicin content was measured by flow cytometry using the PE channel. Represented are fluorescence intensity values. The increased amount of doxorubicin is evidenced by the rightwards displacement of the fluorescence peak. B, CSC/SP and CTAC/MP compartments were identified as in FIG. 9 and the doxorubicin content of cells was determined as in A.
A549 cells were suspended at 10^6 cells/mL in culture medium containing 10 mM Hepes (previously warmed at 37° C.). Hoechst 33342 was added at 5 μg/mL and cells incubated in a 37° C. bath with shaking for 90 min in the dark. Before incubation (and after staining) an aliquot of 1 mL was taken and verapamil (50 μM) and fumitremorgin C (10 μM) added. Cells were centrifuged at 300×g for 5 min at 4° C. and suspended in cold medium with 10 mM Hepes. Cells were kept at 4° C. until analysis. Analysis of Hoechst 33342 efflux was assessed using a Flow Cytometer with incident 350 nm ultraviolet light. The resulting fluorescence was measured at two wavelengths using 424/44 BP and 675 LP filters that allow detection of Hoechst blue and red, respectively. […] Doxorubicin content in either population was estimated with incident 488 nm blue light and 585/40 filter. […]

[3] = test system: PARP cleavage in A549 cells; assay: Flow cytometry of cleaved PARP (caspase-3-mediated apoptosis) in A549 cells; format: cell-based, human; conditions: doxorubicin 1 μM, T12 50 μM, 36 h
Protocol: FIG. 5. T12 enhances doxorubicin-induced caspase 3-mediated apoptosis. A549 cells were incubated with doxorubicin (1 μM) and/or T12 (50 μM) for 36 h. Subsequently, cells were stained with a PE conjugated antibody specific for human PARP-cleaved fragments and further analyzed by flow cytometry. Data are expressed as fold respect to untreated control cells. Shown is a representative experiment.
Caspase-3 activation in A549 cells was evaluated by flow cytometry using a human anti-cleaved PARP antibody conjugated to PE (BD Biosciences). Briefly, after treatment, the cells were collected by centrifugation and suspended in Perm/Wash™ (BD Biosciences) buffer for 20 min, washed and then incubated for 30 min with the antibody. Subsequently, the cells were rinsed and further analyzed by flow cytometry (BD FacsVerse™ cytometer, BD Biosciences).

[4] = Synergism of T12 with paclitaxel (no details given); conditions: T12 plus paclitaxel
A549 cells [5] = assay: Migration assay in modified Boyden chambers; format: cell-based, human; conditions: 16 h
Protocol: FIG. 8. T12 inhibits cancer cell migration. A modified Boyden chamber was used to measure migration as described in Methods and Experimental Design. Doxorubicin was used at 1 μM and T12 at 50 μM.
Migration assays were performed using modified Boyden chambers (Transwell inserts, 6.5 mm diameter; Corning). Inserts containing polycarbonate membranes with 8 μm pores were placed into the lower chambers containing 400 μl media (DMEM:F-12 supplemented with 10% FBS, 1% penicillin-streptomycin and 2 mM glutamine). Serum-starved A549 cells were removed from culture dishes with Hanks' balanced salt solution containing 0.5% trypsin and 0.2% EDTA (Sigma), washed and suspended in media without serum (DMEM:F-12, 1% penicillin-streptomycin and 2 mM glutamine) at 10^6 cells/mL. Two-hundred fifty thousand (250,000) cells in 250 μL media without serum were added to the top of each migration chamber and allowed to migrate to the underside of the porous membrane for 16 h. T12 and doxorubicin were present in the media of both top and bottom compartments throughout the assay. […] The detached cells were labeled with Calcein AM Fluorescent Dye (4 μg/ml) for 90 min at 37° C. and the fluorescence was measured at 494/517 nm (Abs/Em).

## COc1ccc(-c2ccc(-c3cccc(C)c3)c(C)c2)c(CCC(=O)O)c1 [T12, 3-[4″-methoxy-3,2′-dimethyl-(1,1′;4′,1″)terphenyl-2″-yl] propionic acid]
A549 cells [1]; A549, A549 comparison culture (CSC/SP not expanded)
  CC50: 125 µM
A549 cells [1]; A549, A549 cultured in the absence of serum, expanded CSC/SP compartment
  CC50: 15 µM
[2]
  doxorubicin content of cells versus doxorubicin only: higher doxorubicin content
[3]
  doxorubicin-induced PARP cleavage: enhanced
[4]
  synergism of T12 with paclitaxel: synergistic
A549 cells [5]; T12 50 μM plus doxorubicin 1 μM
  cell migration of A549 cells, T12 with additional doxorubicin: virtually arrested
A549 cells [5]; T12 50 μM
  cell migration of A549 cells: sharply inhibited
